Literature values in patent US6153225A (Elan Pharma International Limited, priority 1998, dated 2000).
Where a name gives a salt, the structure may show the parent alone.

COc1ccc2cc([C@H](C)C(=O)O)ccc2c1 [Naproxen, d-2(6-methoxy-2-naphthyl)propionic acid]
pain relief compared with aspirin (menstrual cramps, toothaches, minor arthritis, injuries with inflammation): more potent pain reliever than aspirin

COc1ccc2cc([C@H](C)C(=O)O)ccc2c1 [naproxen sodium salt]
remission of acute and very high intensity pain (naproxen sodium salt): rapid and sustained remission
